The values below come from patent US20120121535A1, “AGENT FOR PREVENTING RECURRENCE OF LEUKEMIA” (RIKEN, priority 2009, published 2012).

For one assay, the system named is hCD34+CD38− LSCs. The assay is described as follows: Flow cytometric cell cycle analysis of LSCs in BM of recipients of primary transplantation of human AML. The class given is in vivo, NOD/SCID/IL2rg^null mice transplanted with human AML. The text has this:
(§1) Newborn (within 2 days of birth) NOD/SCID/IL2rg^null recipient received 150 cGy of total body irradiation using a ^137Cs-source irradiator, followed by intravenous injection of AML cells within two hours. For primary transplantation, 10^3 to 5×10^4 sorted BM cells per recipient from a 7AAD^− lineage (hCD3/hCD4/hCD8) ^−hCD34^+hCD38^− AML patient were used, as described in F. Ishikawa et al., Nat. Biotechnol. 25, 1315 (2007). For secondary transplantation after administration of Ara-C (cytarabine) alone or after administration of G-CSF followed by administration of Ara-C, 2×10^2, 2×10^3, 2×10^4, or 2×10^5 sorted 7AAD^−hCD45^+hCD34^+ BM cells per recipient were used. For fluorescence-activated cell sorting, BMMNC cells from AML patients were labeled with fluorescent dye-conjugated mouse anti-hCD3, anti-hCD4, anti-hCD8, anti-hCD34 and anti-hCD38 monoclonal antibodies (BD Immunocytometry), and BMMNC cells from recipients were labeled with mouse anti-hCD45, anti-hCD34 and anti-hCD38 monoclonal antibodies (BD Immunocytometry); the cells were sorted using FACSAria (Beckton Dickinson, Calif.). Doublets were eliminated via analysis of FSC/SSC-height and FSC/SSC-width. After the sorting, the purities of hCD34^+hCD38^− cells and hCD34^+ cells exceeded 98%.
For experiments involving administration of G-CSF alone, administration of Ara-C alone, and administration of G-CSF followed by administration of Ara-C, recipients of primary transplantation of human AML were used 16 to 24 weeks after transplantation. […]
For evaluation of human AML transplantation, blood was drawn from the orbital sinus of each recipient every 3 weeks starting at week 6 after transplantation. Myelocytes were recovered from two tibiae and one femur from each analyzed recipient; MNCs (mononucleocytes) were counted manually and using an automated blood cell analyzer (Celltac α, Nihon Kohden, Japan), and the absolute number of BMMNCs derived from each recipient was estimated. The absolute number of human CD34^+ cells (derived from two tibiae and one femur) per mouse was determined by multiplying the thus-obtained total BMMNC count by 7AAD^−hCD45^+hCD34^+ BM cells (%). BrdU uptake was measured using a BrdU flow kit (BD Pharmingen, Calif.). To quantify cells in the G0 phase of the cell cycle, the cells were stained with Hoechst 33342 and Pyronin Y, and then surface-stained using standard procedures. Quantitation of cells undergoing apoptosis was performed by staining activated caspase-3 in the cells using a rabbit anti-activated caspase-3 monoclonal antibody (BD Pharmingen, Calif.). […]

In assay [1] the test system is CD34+CD38− LSCs and CD34+CD38+ AML non-stem cells. The assay is described as follows: Activated caspase-3 flow cytometry of BM cells undergoing apoptosis. On the set-up: species or system NOD/SCID/IL2rg^null mice transplanted with human AML. To be noted: in vivo administration, recipient BM. (Flow cytometry measures light scatter and fluorescence of single cells or particles in a stream.)
Procedure: Myelocytes were recovered from two tibiae and one femur from each analyzed recipient; MNCs (mononucleocytes) were counted manually and using an automated blood cell analyzer (Celltac α, Nihon Kohden, Japan), and the absolute number of BMMNCs derived from each recipient was estimated. The absolute number of human CD34^+ cells (derived from two tibiae and one femur) per mouse was determined by multiplying the thus-obtained total BMMNC count by 7AAD^−hCD45^+hCD34^+ BM cells (%). BrdU uptake was measured using a BrdU flow kit (BD Pharmingen, Calif.). To quantify cells in the G0 phase of the cell cycle, the cells were stained with Hoechst 33342 and Pyronin Y, and then surface-stained using standard procedures. […]

For assay [2], the system named is AML cells in the endosteum. The assay is described as follows: HE and TUNEL staining of bone sections. The class given is in vivo, NOD/SCID/IL2rg^null mice transplanted with human AML. As to conditions: bone sections of recipients. The text has this:
For experiments involving administration of G-CSF alone, administration of Ara-C alone, and administration of G-CSF followed by administration of Ara-C, recipients of primary transplantation of human AML were used 16 to 24 weeks after transplantation. For each experiment for comparison of various dose groups, a pair of recipients was selected from among litter mates, with the same primary AML sample transplanted in the same amount on the same day so as to suppress variation among the litter mates and variation due to differences in transplantation level. […]
After administration of Ara-C alone or after administration of Ara-C following pre-administration of G-CSF, the BM of the recipients was evaluated in terms of 1) a flow cytometry fraction of activated caspase-3 positive LSCs undergoing apoptosis, 2) histological localization of cells undergoing apoptosis in the recipient BM as determined by TUNEL staining, 3) percentage and absolute number of remaining viable hCD34^+ AML cells, and 4) frequency and AML-causing potential of remaining LSCs in alternative measurements of the likelihood of AML recurrence via limited dilution and sequential transplantation of sorted hCD34^+ cells. […]

Assay [3] relates to hCD34+ cells, including LSCs. The assay is described as follows: Percentage and absolute number of remaining viable hCD45+CD34+ cells in recipient BM. In kind it is in vivo, NOD/SCID/IL2rg^null mice transplanted with human AML. To be noted: mean +/− SEM; for #CD45+CD34+/mouse (×10^6): two tibiae and one femur; for % CD45+CD34+: viable cells in BM. The text has this:
(§2) For experiments involving administration of G-CSF alone, administration of Ara-C alone, and administration of G-CSF followed by administration of Ara-C, recipients of primary transplantation of human AML were used 16 to 24 weeks after transplantation. For each experiment for comparison of various dose groups, a pair of recipients was selected from among litter mates, with the same primary AML sample transplanted in the same amount on the same day so as to suppress variation among the litter mates and variation due to differences in transplantation level. Performed were administration of recombinant human G-CSF (Wako, Japan): 300 μg/kg s.c. qd×5 days; administration of Ara-C (Biogenesis, Poole, UK): 1 g/kg i.p. qd×2 days; administration of G-CSF+Ara-C: G-CSF 300 μg/kg s.c. qd×5 days, and concurrent administration of Ara-C 1 g/kg i.p. qd×2 days on days 4 and 5 of administration. The recipients were killed 16 hours after final injection. BrdU (1.5 mg/mouse; BD Biosciences, Calif.) was injected by i.p. to recipients under a cell cycle analysis by BrdU uptake immediately after the final injection (s.c. stands for subcutaneous administration, and i.p. for intraperitoneal administration).
For evaluation of human AML transplantation, blood was drawn from the orbital sinus of each recipient every 3 weeks starting at week 6 after transplantation. Myelocytes were recovered from two tibiae and one femur from each analyzed recipient; MNCs (mononucleocytes) were counted manually and using an automated blood cell analyzer (Celltac α, Nihon Kohden, Japan), and the absolute number of BMMNCs derived from each recipient was estimated. The absolute number of human CD34^+ cells (derived from two tibiae and one femur) per mouse was determined by multiplying the thus-obtained total BMMNC count by 7AAD^−hCD45^+hCD34^+ BM cells (%). BrdU uptake was measured using a BrdU flow kit (BD Pharmingen, Calif.). To quantify cells in the G0 phase of the cell cycle, the cells were stained with Hoechst 33342 and Pyronin Y, and then surface-stained using standard procedures. Quantitation of cells undergoing apoptosis was performed by staining activated caspase-3 in the cells using a rabbit anti-activated caspase-3 monoclonal antibody (BD Pharmingen, Calif.). Surface labeling was achieved using mouse anti-human CD45, anti-CD34 and anti-CD38 monoclonal antibodies (BD Immunocytometry). Analyses were performed using FACSAria and FACSCanto II (Becton Dickinson, Calif.).
To evaluate the frequency and function of LSCs remaining after each dosing, limited dilution and secondary transplantation of living hCD34^+ BM cells, including leukemia stem cells sorted from recipients given administration of Ara-C alone or G-CSF+Ara-C, were performed. The absolute number of hCD34^+ cells was obtained from the number of mononucleocytes in two tibiae and one femur derived from each recipient, and viable hCD34^+ cell (%) was obtained by flow cytometry.
The results are shown as mean value +/− SEM; differences were examined by two-tailed t-test.

Another assay relates to LSCs. Description: Limited dilution secondary transplantation of sorted hCD34+ BM cells (LSC frequency, survival of secondary recipients). In kind it is in vivo, NOD/SCID/IL2rg^null mice transplanted with human AML. As to conditions: secondary recipients of hCD34+ cells from treated mice.
Excerpt: as §1, with “After the sorting, the purities of hCD34^+hCD38^− cells and hCD34^+ cells exceeded 98%.” left out
Differences in the ratios/absolute numbers of cells (%), activated caspase-negative cells (%), and BM CD34^+ cells in the cell cycle were analyzed using two-tailed t-test (GraphPad Prism, GraphPad, San Diego, Calif.). […]

The subject of assay [4] is AML cells in the endosteal region. Description: Histological analysis of bone sections (BrdU uptake, Ki67 immunofluorescence) of recipients of human AML. The class given is in vivo, NOD/SCID/IL2rg^null mice transplanted with human AML.
Excerpt: as §2
Paraformaldehyde-fixed, decalcified, paraffin-embedded sections were prepared from femurs of the recipients primarily transplanted with AML. […]

[5] abbreviates: post-Ara-C, intraperitoneal, n=15.
Where [6] appears, read: after administration of G-CSF in vivo, all cases examined.

For `Nc1ccn([C@@H]2O[C@H](CO)[C@@H](O)[C@@H]2O)c(=O)n1` [Ara-C, cytarabine], the “% G0/G1 of CD34+CD38− AML cells” value in the assay on hCD34+CD38− LSCs (setting [5]) is 91.7+/−2.3%. In the assay with hCD34+CD38− LSCs (setting [5]), the “% S of CD34+CD38− AML cells” value is on record as 0.1+/−0.1%. In addition, the “Apoptosis of CD34+CD38+ AML non-stem cells (activated caspase-3)” value in assay [1] is on record as “underwent apoptosis”. Also, the “Apoptosis of CD34+CD38− LSCs (activated caspase-3)” value in assay [1] is “the majority of CD34^+CD38^− LSCs did not”. For the same molecule, the “Cell death in the endosteum (TUNEL and HE staining)” value in assay [2] is “TUNEL-negative AML cells remaining in the endosteum”. In addition, the “#CD45+CD34+/mouse (×10^6)” value is 1.4 +/− 0.3 ×10^6 in assay [3] (Case ID 1); 4.9 +/− 0.7 ×10^6 in assay [3] (Case ID 2); 2.3 +/− 0.1 ×10^6 in assay [3] (Case ID 3); 3.6 +/− 0.8 ×10^6 in assay [3] (Case ID 4); 2.1 +/− 0.2 ×10^6 in assay [3] (Case ID 5); 5.3 +/− 1.4 ×10^6 in assay [3] (Case ID 6). In addition, in assay [3] (Case ID 7), the “#CD45+CD34+/mouse (×10^6)” value was 0.7 +/− 0.1 ×10^6. Moreover, the “% CD45+CD34+” value in assay [3] (Case ID 1) is 29.7 +/− 1.6%; in assay [3] (Case ID 2), 84.9 +/− 2.5%; in assay [3] (Case ID 3) it was 80.2 +/− 2.3%; in assay [3] (Case ID 4), 68.0 +/− 2.8%; in assay [3] (Case ID 5), 61.5 +/− 7.5%; in assay [3] (Case ID 6), 49.0 +/− 9.2%. The “% CD45+CD34+” value in assay [3] (Case ID 7) was 16.5 +/− 1.7%. Also, the “Secondary mouse recipients surviving beyond 19 weeks after transplantation” value in the assay on LSCs is “None”.

B1: G-CSF: recombinant human G-CSF (Wako, Japan), granulocyte colony stimulation factor (protein)
chain: TPLGPASSLPQSFLLKCLEQVRKIQGDGAALQEKLVSECATYKLCHPEELVLLGHSLGIPWAPLSSCPSQALQLAGCLSQLHSGLFLYQGLLQALEGISPELGPTLDTLQLDVADFATTIWQQMEELGMAPALQPTQGAMPAFASAFQRRAGGVLVASHLQSFLEVSYRVLRHLAQP
With B1, in the assay on hCD34+CD38− LSCs (setting [6]), the “LSCs in the G0 phase fraction” value is given as “decreased significantly”; the “LSCs in the S phase and G2/M phase” value is “increased”. The “Expression of Ki67 in AML cells in BM center and endosteal region” value in assay [4] (after 5 days of administration of G-CSF) is on record as “expression of Ki67 was induced”. In assay [4] (after administration of G-CSF), the “BrdU uptake of AML cells in the endosteal region” value was “increase in BrdU uptake”.
